Measurements: patent publication US4874777A, “Leukotriene antagonists” (Eli Lilly and Company, priority 1987, dated 1989)

System: LTD4 evoked ileal contractions
Assay: LTD4 antagonism in isolated guinea pig ileum (inhibition of LTD4 evoked ileal contractions)
Type: cell-based, guinea pig (male, Hartley)
Conditions: Cavia porcellus; for IC50: 50% inhibition of LTD4 responses, interpolated by linear regression from 2-4 concentrations; for inhibition at 0.3 µM: compound concentration 3 × 10^-7 M; for inhibition at 0.3 µM / inhibition at 0.03 µM / inhibition at 0.1 µM / inhibition at 0.01 µM / inhibition at 0.003 µM: read-out: Percent inhibition of LTD4 evoked ileal contractions; for inhibition at 0.03 µM: compound concentration 3 × 10^-8 M; for inhibition at 0.1 µM: compound concentration 1 × 10^-7 M; for inhibition at 0.01 µM: compound concentration 1 × 10^-8 M; for inhibition at 0.003 µM: compound concentration 3 × 10^-9 M
Experimental: Male, Hartley guinea pigs weighing 200-450 grams were killed by decapitation. A section of terminal ileum was removed, the lumen cleaned, and the tissue divided into 2.5 cm. segments. The ilea were mounted in 10 ml. tissue baths containing Krebs-bicarbonate solution of the following composition in mmoles/liter: KCl, 4.6; CaCl2 ·H2 O, 1.2; KH2 PO4, 1.2; MgSO4 ·7H2 O, 1.2; NaCl, 118.2; NaHCO3, 24.8; and dextrose, 10.0. The bath fluid was maintained at 37° C. and aerated with 95 percent oxygen and 5 percent CO2. In addition, the buffer contained 1×10^-6 M atropine to reduce ileal spontaneous activity. Isometric measurements were made with a Grass FTO3C force-displacement transducer and recorded on a Gras polygraph as change in grams of force. A passive force of 0.5 g. was applied to the tissues. After an appropriate equilibration period, single submaximal control responses to pure LTD4 were obtained. Following a five minute exposure of the ileum to an experimental drug, the control concentration of LTD4 was added to the tissue bath. The response of the ileum to LTD4 in the presence of the drug was compared to the response in the absence of the drug. Various degrees of LTD4 antagonism were obtained using 2-4 different concentrations of an experimental compound on a single ileum.

IC50 [nM] | SMILES | inhibition at 0.3 µM [%] | inhibition at 0.03 µM [%] | inhibition at 0.1 µM [%] | inhibition at 0.01 µM [%] | inhibition at 0.003 µM [%]
33.1 | CCCc1c(COc2ccc(C(=O)CCC(=O)O)cc2)ccc(C(C)=O)c1O [Example 1, 4-[(4-Acetyl-3-hydroxy-2-propylphenyl)methoxy]-γ-oxobenzenebutanoic acid] | 97 | 48 |  |  | 
15.8 | CCCc1c(COc2ccc(C(=O)CCCCC(=O)O)cc2)ccc(C(C)=O)c1O [Example 5, 4-[(4-Acetyl-3-hydroxy-2-propylphenyl)methoxy]-ε-oxobenzenehexanoic acid] |  | 63 | 86 | 40 | 
18.6 | CCCc1c(COc2ccc(C(=O)CC(C)(C)CC(=O)O)cc2)ccc(C(C)=O)c1O [Example 6, 4-[(4-Acetyl-3-hydroxy-2-propylphenyl)methoxy]-β,β-dimethyl-δ-oxobenzenepentanoic acid] |  |  | 78 | 41 | 16
37.2 | CCCc1c(COc2ccc(C(=O)CCCC(=O)O)cc2)ccc(C(C)=O)c1O [Example 7, 4-[(4-Acetyl-3-hydroxy-2-propylphenyl)methoxy]-δ-oxobenzenepentanoicacid] |  |  | 68 | 17 | 
21.9 | CCCc1c(COc2ccc(C(=O)Cc3nnn[nH]3)cc2)ccc(C(C)=O)c1O [Example 8, 1-{4-[(4-acetyl-3-hydroxy-2-propylphenyl)methoxy]phenyl}-2-(1H-tetrazol-5-yl)ethanone] |  | 54 |  | 40 | 
26.3 | CCCc1c(COc2ccc(C(=O)CCc3nnn[nH]3)cc2)ccc(C(C)=O)c1O [Example 9, 1-{4-[(4-Acetyl-3-hydroxy-2-propylphenyl)methoxy]phenyl}-3-(1H-tetrazol-5-yl)-1-propanone] | 91 | 54 | 85 | 25 | 
4.79 | CCCc1c(COc2ccc(C(=O)CCCc3nnn[nH]3)cc2)ccc(C(C)=O)c1O [Example 10, 1-{4-[(4-Acetyl-3-hydroxy-2-propylphenyl)methoxy]-phenyl}-4-(1H-tetrazol-5-yl)-1-butanone] | 94 | 76 | 95 | 57 | 46
24.5 | CCCc1c(COc2ccc(C(=O)CCCCc3nnn[nH]3)cc2)ccc(C(C)=O)c1O [Example 11, 1-{4-[(4-Acetyl-3-hydroxy-2-propylphenyl)methoxy]phenyl}-5-(1H-tetrazol-5-yl)-1-pentanone] |  | 51 |  | 43 | 
51.3 | CCCc1c(COc2ccc(C(=O)C(C)(C)Cc3nnn[nH]3)cc2)ccc(C(C)=O)c1O [Example 12, 1-{4-[(4-Acetyl-3-hydroxy-2-propylphenyl)methoxy]phenyl}-2,2-dimethyl-3-(1H-tetrazol-5-yl)-1-propanone] | 60 | 41 |  |  | 
24.5 | CCCc1c(COc2ccc(C(=O)CCCc3nnn[nH]3)c(O)c2)ccc(C(C)=O)c1O [Example 13, 1-{4-[(4-Acetyl-3-hydroxy-2-propylphenyl)methoxy]-2-hydroxyphenyl}-4-(1H-tetrazol-5-yl)-1-butanone] | 82 |  |  | 28 | 
20.4 | CCCc1c(COc2ccc(C(=O)C(C)Cc3nnn[nH]3)cc2)ccc(C(C)=O)c1O (stereo not shown) [Example 14, 1-{4-[(4-Acetyl-3-hydroxy-2-propylphenyl)methoxy]phenyl}-2-methyl-3-(1H-tetrazol-5-yl)-1-propanone] |  | 58 |  | 35 | 
3.24 | CCCc1c(COc2ccc(C(=O)CC(C)(C)Cc3nnn[nH]3)cc2)ccc(C(C)=O)c1O [Example 15, 1-{4-[(4-Acetyl-3-hydroxy-2-propylphenyl)methoxy]phenyl}-3,3-dimethyl-4-(1H-tetrazol-5-yl)-1-butanone] |  | 91 |  |  | 50
4.79 | CCc1c(COc2ccc(C(=O)CC(C)(C)Cc3nnn[nH]3)cc2)ccc(C(C)=O)c1O [Example 16, 1-{4-[(4-Acetyl-3-hydroxy-2-ethylphenyl)methoxy]phenyl}-3,3-dimethyl-4-(1H-tetrazol-5-yl)-1-butanone] |  |  | 95 | 63 | 41
18.2 | CCCc1c(COc2cccc(C(=O)CCCc3nnn[nH]3)c2)ccc(C(C)=O)c1O [Example 18, 1-{3-[(4-Acetyl-3-hydroxy-2-propylphenyl)methoxy]phenyl}-4-(1H-tetrazol-5-yl)-1-butanone] |  | 65 | 84 | 34 | 
32.4 | CCCc1c(COc2ccc(C(=O)CCCCCc3nnn[nH]3)cc2)ccc(C(C)=O)c1O [Example 19, 1-{4-[(4-Acetyl-3-hydroxy-2-propylphenyl)methoxy]phenyl}-6-(1H-tetrazol-5-yl)-1-hexanone] |  | 47 | 80 |  | 
21.4 | CCc1c(COc2ccc(C(=O)CC(C)(C)CC(=O)O)cc2)ccc(C(C)=O)c1O [Example 23, 4-[(4-Acetyl-2-ethyl-3-hydroxyphenyl)methoxy]-β,β-dimethyl-δ-oxobenzenepentanoic acid] |  | 66 | 88 | 25 | 
13.5 | CCCc1c(COc2ccc(C(=O)CC3(CC(=O)O)CCCC3)cc2)ccc(C(C)=O)c1O [Example 24, 1-(2-{4-[(4-Acetyl-3-hydroxy-2-propylphenyl)methoxy]phenyl}-2-oxoethyl)cyclopentaneacetic acid] |  | 74 | 85 | 35 | 
10.2 | CCCc1c(COc2ccc3c(c2)CCC(CC(=O)O)C3=O)ccc(C(C)=O)c1O (stereo not shown) [Example 28, 6-[(4-Acetyl-3-hydroxy-2-propylphenyl)methoxy]-1,2,3,4-tetrahydro-1-oxo-2-naphthaleneacetic acid] |  |  |  |  | 
75.9 | CCCc1c(COc2ccc3c(c2)C(=O)C(CC(=O)O)CC3)ccc(C(C)=O)c1O (stereo not shown) [Example 29, 7-[(4-Acetyl-3-hydroxy-2-propylphenyl)methoxy]-1,2,3,4-tetrahydro-1-oxo-2-naphthaleneacetic acid] |  |  |  |  | 
